Reference: patent publication US4560677A, “Synergistic avermectin combination for treating plant pests” (Merck & Co., Inc., priority 1984, dated 1985)
Read-outs that look alike come from different tables or passages of the source.

Assays:
2-spotted spider mites [1] = experiment: Contact activity on bean leaves against 2-spotted spider mites (Table X); format: in vivo, Tetranychus urticae; conditions: for mortality at 0.015 ppm / mortality at 0.04 ppm / mortality at 0.06 ppm / mortality at 0.25 ppm: Tetranychus urticae
Method: (§1) A solution of Triton X-155 in acetone (1000 ppm) was used to dissolve the material under test and the resultant solution was diluted with water to obtain a mixture of 10% acetone and 100 ppm of Triton X-155 in water. Further dilution of this stock solution as required in a test was done by using Triton X-155 at 100 ppm in water so that a constant ratio of the surfactant was maintained at all levels. Where emulsifiable oil was used in the treatments, the solutions were prepared in such a way that the final solutions contained 0.06% v/v of the oil.
(§2) Leaves of Sieva bean plants grown from seeds planted 14-21 days earlier were used in all the tests. Twospotted spider mites (Tetranychus urticae) were cultured continuously on sieva bean plants growing in an insectary under continuous lighting at 75° F.
On day 0, eight leaves which had been infested with mites 24 hours earlier were dipped in the treatment solution. On Day 5, mortality was assessed on four of the leaves and on Day 12 on the remaining four leaves.

2-spotted spider mites [2] = experiment: Residual activity on bean leaves against 2-spotted spider mites (Table X); format: in vivo; conditions: Tetranychus urticae
Method: as §1, §2
On Day 0, eight uninfested leaves were treated by immersion in the treatment solution. On Day 7, all the leaves were infested with a mixed population of mites. On Day 13, mortality was assessed on four of the leaves and on Day 19 on the remaining four leaves.

citrus rust mites = experiment: Field experiment, citrus rust mite on pink grapefruit in Florida (Table XI); format: in vivo, Phyllocoptruta oleivora
Method: Citrus (pink grapefruit) trees (which were 5-7 years old) infested with citrus rust mites (Phyllocoptrura oleivora) were sprayed using a hydraulic handgun at 250 psi. Each tree was sprayed until runoff.
Each treatment consisted of three replicates. Thirty-three leaves from each tree were evaluated for percent leaf area not infested by mites. These evaluations were done before the application of treatments and 7 and 14 days after the application of treatments.

[3] = 120 h, read-out: mortality, adults
[4] = 288 h, read-out: mortality, adults
[5] = 288 h, read-out: mortality, larvae
[6] = 288 h, read-out: mortality, nymphs
[7] = 144 h, read-out: mortality, adults
[8] = 144 h, read-out: mortality, nymphs

CC1=C[C@H]2C(=O)O[C@H]3C[C@@H](C/C=C(\C)C[C@@H](C)/C=C/C=C4\CO[C@H]([C@@H]1O)[C@@]42O)O[C@@]1(CC[C@H](C)[C@@H](C(C)C)O1)C3 [Milbemycin B-41D, 13-deoxy-22,23-dihydro avermectin B1b aglycone]
mortality at 0.015 ppm (2-spotted spider mites [1]; [3]): 66%
mortality at 0.04 ppm (2-spotted spider mites [1]; [3]): 79%
mortality at 0.06 ppm (2-spotted spider mites [1]; [3]): 92%
mortality at 0.25 ppm (2-spotted spider mites [1]; [3]): 100%
mortality at 0.015 ppm (2-spotted spider mites [1]; [4]): 0%
mortality at 0.04 ppm (2-spotted spider mites [1]; [4]): 0%
mortality at 0.06 ppm (2-spotted spider mites [1]; [4]): 38%
mortality at 0.25 ppm (2-spotted spider mites [1]; [4]): 43%
mortality at 0.015 ppm (2-spotted spider mites [1]; [5]): 0%
mortality at 0.04 ppm (2-spotted spider mites [1]; [5]): 0%
mortality at 0.06 ppm (2-spotted spider mites [1]; [5]): 91%
mortality at 0.25 ppm (2-spotted spider mites [1]; [5]): 100%
mortality at 0.015 ppm (2-spotted spider mites [1]; [6]): 0%
mortality at 0.04 ppm (2-spotted spider mites [1]; [6]): 0%
mortality at 0.06 ppm (2-spotted spider mites [1]; [6]): 56%
mortality at 0.25 ppm (2-spotted spider mites [1]; [6]): 67%
potency in short term contact studies (2-spotted spider mites [1]; avermectin B1a/B1b versus milbemycin B-41D): comparable potency
mortality at 0.25 ppm (2-spotted spider mites [2]; [7]): 0%
mortality at 1 ppm (2-spotted spider mites [2]; [7]): 0%
mortality at 4 ppm (2-spotted spider mites [2]; [7]): 6%
mortality at 16 ppm (2-spotted spider mites [2]; [7]): 50%
mortality at 0.25 ppm (2-spotted spider mites [2]; [8]): 0%
mortality at 1 ppm (2-spotted spider mites [2]; [8]): 0%
mortality at 4 ppm (2-spotted spider mites [2]; [8]): 0%
mortality at 16 ppm (2-spotted spider mites [2]; [8]): 57%
mortality at 0.25 ppm (2-spotted spider mites [2]; [4]): 0%
mortality at 1 ppm (2-spotted spider mites [2]; [4]): 0%
mortality at 4 ppm (2-spotted spider mites [2]; [4]): 15%
mortality at 16 ppm (2-spotted spider mites [2]; [4]): 88%
mortality at 0.25 ppm (2-spotted spider mites [2]; [5]): 0%
mortality at 1 ppm (2-spotted spider mites [2]; [5]): 0%
mortality at 4 ppm (2-spotted spider mites [2]; [5]): 53%
mortality at 16 ppm (2-spotted spider mites [2]; [5]): 100%
mortality at 0.25 ppm (2-spotted spider mites [2]; [6]): 0%
mortality at 1 ppm (2-spotted spider mites [2]; [6]): 0%
mortality at 4 ppm (2-spotted spider mites [2]; [6]): 2%
mortality at 16 ppm (2-spotted spider mites [2]; [6]): 78%
Percent control (citrus rust mites; 0.04 oz ai/100 gal, 7 days after treatment): 14%
Percent control (citrus rust mites; 0.04 oz ai/100 gal, 14 days after treatment): 13%
Percent control (citrus rust mites; 0.2 oz ai/100 gal, 7 days after treatment): 16%
Percent control (citrus rust mites; 0.2 oz ai/100 gal, 14 days after treatment): 18%
